Data reported in patent publication US5705662A, “17-(3-imino-2-alkylpropenyl)-5β, 14β-androstane derivatives active on the cardiovascular system, processes for their preparation and pharmaceutical compositions containing same” (Sigma-Tau Industrie Farmaceutiche Riunite S.p.A., priority 1994, dated 1998).

Legend:
Na^+,K^+ -ATPase [1] = settings: J. Med. Chem. 1978, 21, 284; Quant. Struct.-Act. Relat. 1988, 7, 160; DE 4,227,605; DE 4,227,626; cited from earlier work
[2] = J. Med. Chem. 1978, 21, 284; Quant. Struct.-Act. Relat. 1988, 7, 160; cited from earlier work
Na^+,K^+ -ATPase [3] = target: T1, Na^+,K^+ -ATPase (Canis lupus familiaris, UniProt P50997); test: displacement of the specific 3H-ouabain binding from the purified Na+,K+-ATPase receptor
T1 construct: Na^+,K^+ -ATPase receptor purified according to Jorghensen; from tissue
Excerpt: (§1) To test the affinity for the receptor site of the Na^+,K^+ -ATPase and the agonist or antagonist activity on the enzyme, the following tests were used:
a) displacement of the specific ^3 H-ouabain binding from the Na^+,K^+ -ATPase receptor purified according to Jorghensen (Jorghensen P., BBA. 1974, 356, 36) and Erdmann (Erdmann E. et al., Arzneim. Forsh., 1984, 34, 1314);

Na^+,K^+ -ATPase [4] = target: T1, Na^+,K^+ -ATPase; test: inhibition of the activity of the purified Na+,K+-ATPase (% hydrolysis of 32P-ATP); format: biochemical
Excerpt: as §1
b) inhibition of the activity of the purified Na^+,K^+ -ATPase measured as % of hydrolysis of ^32 P-ATP in presence and in absence of the tested compound (Doucet A. et al. Am. J. Physiol., 1986, 251, F851)

[5] = 3H-ouabain displacement, purified Na+,K+-ATPase, read-out: Binding ^3 H-Ouab. Displacement log IC50 (converted)
[6] = purified Na+,K+-ATPase, 32P-ATP hydrolysis, read-out: Inhibitory Activity log IC50 (converted)

SMILES	IC50 (Na^+,K^+ -ATPase [3]; [5]) [nM]	IC50 (Na^+,K^+ -ATPase [4]; [6]) [nM]	IC50 (Na^+,K^+ -ATPase [4]) [nM]	IC50 (Na^+,K^+ -ATPase [3]) [nM]	also measured
C[C@]12CC[C@H](O)C[C@H]1CC[C@@H]1[C@@H]2CC[C@]2(C)C(=NNC(=N)N)CC[C@]12O [17-guanidinoimino-5β-androstane-3β,14β-diol]	–	–	–	–	inhibition of Na+,K+-ATPase (in words) (Na^+,K^+ -ATPase [1]): weak inhibitors of Na^+,K^+ -ATPase; positive inotropic activity (in words) [2]: weak positive inotropic agents
CC(/C=N/NC1=NCCN1)=C\[C@H]1CC[C@]2(O)[C@@H]3CC[C@@H]4C[C@@H](O)CC[C@]4(C)[C@H]3CC[C@]12C [Comp. I-ab, (E,E)-17β-[3-(2-Imidazolin-2-yl)hydrazono-2-methyl-1-propenyl]-5β-androstane-3β,14β-diol]	63.1	3160	–	–	–
CC(/C=N/NC1=NCCN1C)=C\[C@H]1CC[C@]2(O)[C@@H]3CC[C@@H]4C[C@@H](O)CC[C@]4(C)[C@H]3CC[C@]12C [Comp. I-ac, (E,E)-17β-[3-(1-Methyl-2-imidazolin-2-yl)hydrazono-2-methyl-1-propenyl]-5β-androstane-3β,14β-diol]	316	–	3980	–	–
CC(/C=N/NC1=NCCCN1)=C\[C@H]1CC[C@]2(O)[C@@H]3CC[C@@H]4C[C@@H](O)CC[C@]4(C)[C@H]3CC[C@]12C [Comp. I-ad, (E,E)-17β-[3-(1,4,5,6-Tetrahydro-2-pyrimidinyl)hydrazono-2-methyl-1-propenyl]-5β-androstane-3β,14β-diol]	63.1	–	2510	–	–
CC(/C=N/NC(=N)NCCN(C)C)=C\[C@H]1CC[C@]2(O)[C@@H]3CC[C@@H]4C[C@@H](O)CC[C@]4(C)[C@H]3CC[C@]12C [Comp. I-ae, (E,E)-17β-{3-[3-(2-Dimethylaminoethyl)guanidinoimino]-2-methyl-1-propenyl}-5β-androstane-3β,14β-diol]	–	–	6310	501	–
CC(/C=N/OCCCN)=C\[C@H]1CC[C@]2(O)[C@@H]3CC[C@@H]4C[C@@H](O)CC[C@]4(C)[C@H]3CC[C@]12C [Comp. I-ag]	25.1	50.1	–	–	–
CC(/C=N/OCCN(C)C)=C\[C@H]1CC[C@]2(O)[C@@H]3CC[C@@H]4C[C@@H](O)CC[C@]4(C)[C@H]3CC[C@]12C [Comp. I-ah, (E,E)-17β-[3-(2-Dimethylaminoethoxyimino)-2-methyl-1-propenyl]-5β-androstane-3β,14β-diol]	20	63.1	–	–	–
CC(/C=N/OCCCN(C)C)=C\[C@H]1CC[C@]2(O)[C@@H]3CC[C@@H]4C[C@@H](O)CC[C@]4(C)[C@H]3CC[C@]12C [Comp. I-ai, (E,E)-17β-[3-(3-Dimethylaminopropoxyimino)-2-methyl-1-propenyl]-5β-androstane-3β,14β-diol]	31.6	63.1	–	–	–
CC(/C=N/OCCNC(=N)N)=C\[C@H]1CC[C@]2(O)[C@@H]3CC[C@@H]4C[C@@H](O)CC[C@]4(C)[C@H]3CC[C@]12C [Comp. I-aj, (E,E)-17β-[3-(2-Guanidinoethoxyimino)-2-methyl-1-propenyl]-5β-androstane-3β,14β-diol]	–	126	–	50.1	–
CC(/C=N/OCCCNC(=N)N)=C\[C@H]1CC[C@]2(O)[C@@H]3CC[C@@H]4C[C@@H](O)CC[C@]4(C)[C@H]3CC[C@]12C [Comp. I-ak, (E,E)-17β-[3-(3-Guanidinopropoxyimino)-2-methyl-1-propenyl]-5β-androstane-3β,14β-diol]	63.1	–	200	–	–
CCC(/C=N/NC(=N)N)=C\[C@H]1CC[C@]2(O)[C@@H]3CC[C@@H]4C[C@@H](O)CC[C@]4(C)[C@H]3CC[C@]12C [Comp. I-al, (E,E)-17β-(3-Guanidinoimino-2-ethyl-1-propenyl)-5β-androstane-3β,14β-diol]	–	–	1000	126	–
CCC(/C=N/OCCN)=C\[C@H]1CC[C@]2(O)[C@@H]3CC[C@@H]4C[C@@H](O)CC[C@]4(C)[C@H]3CC[C@]12C [Comp. I-am, (E,E)-17β-[3-(2-Aminoethoxyimino)-2-ethyl-1-propenyl]-5β-androstane-3β,14β-diol]	63.1	126	–	–	–
CCC(/C=N/OCCCN)=C\[C@H]1CC[C@]2(O)[C@@H]3CC[C@@H]4C[C@@H](O)CC[C@]4(C)[C@H]3CC[C@]12C [Comp. I-an, (E,E)-17β-[3-(3-Aminopropoxyimino)-2-ethyl-1-propenyl]-5β-androstane-3β,14β-diol]	–	316	–	100	–
CCC(/C=N/OCCN(C)C)=C\[C@H]1CC[C@]2(O)[C@@H]3CC[C@@H]4C[C@@H](O)CC[C@]4(C)[C@H]3CC[C@]12C [Comp. I-ao, (E,E)-17β-[3-(2-Dimethylaminoethoxyimino)-2-ethyl-1-propenyl]-5β-androstane-3β,14β-diol]	–	501	–	126	–
CCC(/C=N/OCCCN(C)C)=C\[C@H]1CC[C@]2(O)[C@@H]3CC[C@@H]4C[C@@H](O)CC[C@]4(C)[C@H]3CC[C@]12C [Comp. I-ap, (E,E)-17β-[3-(3-Dimethylaminopropoxyimino)-2-ethyl-1-propenyl]-5β-androstane-3β,14β-diol]	–	631	–	200	–
CC(/C=N/NC(=N)N)=C\[C@@]1(O)CC[C@]2(O)[C@@H]3CC[C@@H]4C[C@@H](O)CC[C@]4(C)[C@H]3CC[C@]12C [Comp. I-aq, (E,E)-17β-(3-Guanidinoimino-2-methyl-1-propenyl]-5β-androstane-3β,14β,17α-triol]	398	–	3980	–	–
CC(/C=N/OCCN)=C\[C@@]1(O)CC[C@]2(O)[C@@H]3CC[C@@H]4C[C@@H](O)CC[C@]4(C)[C@H]3CC[C@]12C [Comp. I-ar, (E,E)-17β-[3-(2-Aminoethoxyimino)-2-methyl-1-propenyl]-5β-androstane-3β,14β,17α-triol]	316	–	2510	–	–
CC(/C=N/OCCN(C)C)=C\[C@@]1(O)CC[C@]2(O)[C@@H]3CC[C@@H]4C[C@@H](O)CC[C@]4(C)[C@H]3CC[C@]12C [Comp. I-as, (E,E)-17β-[3-(2-Dimethylaminoethoxyimino)-2-methyl-1-propenyl]-5β-androstane-3β,14β,17α-triol]	398	–	3160	–	–
CC(/C=N/NC(=N)N)=C\[C@H]1CC[C@]2(O)[C@@H]3CC[C@@H]4C[C@@H](OCCN5CCCC5)CC[C@]4(C)[C@H]3CC[C@]12C [Comp. I-at, (E,E)-36-[2-(1-Pyrrolidinyl)ethoxy]-17β-(3-guanidinoimino-2-methyl-1-propenyl]-5β-androstane-14β-ol]	–	158	–	39.8	–
CC(/C=N/OCCN)=C\[C@H]1CC[C@]2(O)[C@@H]3CC[C@@H]4C[C@@H](OCCN5CCCC5)CC[C@]4(C)[C@H]3CC[C@]12C [Comp. I-au]	20	39.8	–	–	–
CC(/C=N/NC(=N)N)=C\[C@H]1CC[C@]2(O)[C@@H]3CC[C@@H]4C[C@@H](OCCCN5CCCC5)CC[C@]4(C)[C@H]3CC[C@]12C [Comp. I-av]	–	200	–	50.1	–
CC(/C=N/OCCN)=C\[C@H]1CC[C@]2(O)[C@@H]3CC[C@@H]4C[C@@H](OCC(C)N5CCCC5)CC[C@]4(C)[C@H]3CC[C@]12C (stereo partly drawn) [Comp. I-aw, (E,E)-3β-[2-(1-Pyrrolidinyl)propoxy]-17β-[3-(2-aminoethoxyimino)-2-methyl-1-propenyl]-5β-androstane-14β-ol]	25.1	63.1	–	–	–
CC(/C=N/OCCN)=C\[C@H]1CC[C@]2(O)[C@@H]3CC[C@@H]4C[C@@H](OCCN)CC[C@]4(C)[C@H]3CC[C@]12C [Comp. I-ay, (E,E)-3β-(2-Aminoethoxy)-17β-[3-(2-aminoethoxyimino)-2-methyl-1-propenyl]-5β-androstane-14β-ol]	25.1	31.6	–	–	–
CC(/C=N/NC(=N)N)=C\[C@H]1CC[C@]2(O)[C@@H]3CC[C@@H]4C[C@@H](OCCCN)CC[C@]4(C)[C@H]3CC[C@]12C [Comp. I-az]	25.1	31.6	–	–	–
CC(/C=N/OCCN)=C\[C@H]1CC[C@]2(O)[C@@H]3CC[C@@H]4C[C@@H](OCCCN)CC[C@]4(C)[C@H]3CC[C@]12C [Comp. I-ba]	20	39.8	–	–	–
CC(/C=N/NC(=N)N)=C\[C@H]1CC[C@]2(O)[C@@H]3CC[C@@H]4C[C@H](O)CC[C@]4(C)[C@H]3CC[C@]12C [Comp. I-bb, (E,E)-17β-(3-Guanidinoimino-2-methyl-1-propenyl)-5β-androstane-3α,14β-diol]	–	–	3160	631	–
CC(/C=N/OCCN)=C\[C@H]1CC[C@]2(O)[C@@H]3CC[C@@H]4C[C@H](O)CC[C@]4(C)[C@H]3CC[C@]12C [Comp. I-bc, (E,E)-17β-[3-(2-Aminoethoxyimino)-2-methyl-1-propenyl]-5β-androstane-3α,14β-diol]	–	–	2510	501	–
CC(/C=N/OCCN)=C\[C@H]1CC[C@]2(O)[C@@H]3CC[C@@H]4C[C@H](OCCN5CCCC5)CC[C@]4(C)[C@H]3CC[C@]12C [Comp. I-bd]	–	–	3160	501	–
CC(/C=N/OCCN)=C\[C@H]1CC[C@]2(O)[C@@H]3CC[C@@H]4C[C@H](OCCCN)CC[C@]4(C)[C@H]3CC[C@]12C [Comp. I-be, (E,E)-3α-(3-Aminopropoxy)-17β-[3-(2-aminoethoxyimino)-2-methyl-1-propenyl]-5β-androstane-14β-ol]	–	–	3980	631	–
CC(/C=N/NC(=N)N)=C\[C@H]1CC[C@]2(O)[C@@H]3CC[C@@H]4C[C@@H](OCCN)CC[C@]4(C)[C@H]3CC[C@]12C [I-ax]	25.1	39.8	–	–	–
